Drawing on patent US20130150354A1, “NEW SELECTIVE CCR2 ANTAGONISTS” (BOEHRINGER INGELHEIM INTERNATIONAL GMBH, priority 2011, published 2013), this text covers Ki for 24 compounds.

The target of assay [1] is T1, CCR2 (Homo sapiens, UniProt P41597).
T1 construct: Membranes were prepared from THP-1 cells; endogenous in cells; host or cells: THP-1 (human acute monocytic leukaemia cells), membrane preparation
T1 sequence (P41597 1-360 isoform P41597-2): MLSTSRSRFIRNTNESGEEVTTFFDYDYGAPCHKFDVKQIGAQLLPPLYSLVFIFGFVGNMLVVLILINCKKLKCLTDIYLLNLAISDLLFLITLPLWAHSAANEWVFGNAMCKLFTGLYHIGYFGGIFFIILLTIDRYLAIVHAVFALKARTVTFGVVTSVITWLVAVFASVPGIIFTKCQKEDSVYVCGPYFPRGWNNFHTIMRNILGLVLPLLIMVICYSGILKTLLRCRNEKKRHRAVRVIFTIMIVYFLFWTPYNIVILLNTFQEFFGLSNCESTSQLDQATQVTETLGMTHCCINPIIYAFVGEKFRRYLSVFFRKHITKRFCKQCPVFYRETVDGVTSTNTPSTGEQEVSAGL
Kind of assay: CCR2 receptor membrane binding assay (THP-1 membranes, 125I-MCP-1, SPA beads). As to conditions: THP-1 cell membranes, 125I-MCP-1, 8 h; read-out: hKi [nM] (CCR2). The procedure: The above exemplary substances have been tested for binding to CCR2 using a binding assay as outlined herein below:
THP-1 cells (human acute monocytic leukaemia cells) were cultured under standardized conditions at 37° C. and 5% CO2 in a humidified incubator. THP-1 cells were cultivated in RPMI 1640 medium (Gibco 21875) containing 1% MEM-NEAA (Gibso 11140) 2 mM L-glutamine, 1.5 g/L sodium bicarbonate, 4.5 g/L glucose, 10 mM HEPES and 1.0 mM sodium pyruvate, 90%; 10% fetal calf serum (FCS Gibco 10500-064).
Membranes were prepared from THP-1 cells. THP-1 cells were centrifuged at 300×g at 4° C. for 10 min. The cell pellet was resuspendet in Phosphate Buffer Saline (PBS, including 10 μM Pefabloc and a protease inhibitor mix ‘complete’, Boehringer Mannheim (1 tablet/50 ml)), to a concentration of […]. The membrane preparation was performed by disrupting the cells by nitrogen […] (at 50 bar, for 1 h) in a “Nitrogen Bombe” (Parr Instrument). Cell debris was removed by centrifugation (800×g at 4° C., 1 min). The supernatant was centrifuged at 80000×g, 4° C. for 30 min to sediment the cell membranes. Usually 50 mg of protein (Bradford assay) were yielded from 1×10E9 cells. The membranes were resuspendet in 25 mM HEPES, 25 mM MgCl2, 1 mM CaCl2, 10% Glycerine for storage in aliquots at −80° C. in 25 mM HEPES, 25 mM MgCl2, 1 mM CaCl2, 10% Glycerine and stored at −80° C.
Perkin Elmer NEX 332 Jod^125 MCP-1, Stock: 2200 Ci/mmol solved in 2000 μl assay buffer, stored at −20° C. THP-1 membrane were adjusted with 25 mM HEPES, pH 7.2; 5 mM MgCl2; 0.5 mM CaCl2; 0.2% BSA assay buffer to a concentration of 2.5 μg/15 μl. Amersham Biosciences PVT-WGA Beads (RPNQ0001) were adjusted with assay buffer to a concentration of 0.24 mg/30 μl. For preparation of the membrane-bead-suspension membranes and beads were incubated for 30 min at RT under rotation (60 rpm) with a ratio of 1:2. Test compounds dissolved in 100% DMSO to a concentration of 10 mM and are further diluted with 100% DMSO to 1 mM. All additional compound dilutions were obtained with assay buffer, final 1% DMSO. Compounds, membrane-bead-suspension and [^125]MCP-1 (ca. 25000 cpm/10 μl) were incubated. Bound radioactivity was determined by scintillation counter after 8 h. Determination of affinity of test compounds (dissociation constant hKi) is calculated by iterative fitting of experimental data using the “easy sys” program, which is based on law of mass action (Schittkowski K. (1994), Numerische Mathematik, Vol. 68, 129-142).

Assay [2] has as its target T2, human CCR5 (Homo sapiens, UniProt P51681).
T2 construct: expressed in transfected cells; host or cells: CHO cells co-expressing Gα16, grown under puromycin and zeocin selection; membrane preparation
The assay can be described thus: CCR5 receptor membrane binding assay (CHO (Gα16) human CCR5 membranes, [125I]RANTES, SPA beads). As to conditions: 6 h, read-out: hKi [nM] (CCR5). As for the experimental part: The above exemplary substances have been tested for binding to CCR5 using a binding assay as outlined herein below:
CHO, (Gα16) human CCR5 cells were cultured under standardized conditions at 37° C. and 5% CO2 in a humidified incubator. CHO (Gα16) human CCR5 cells were cultivated in Ham's F12 (Invitrogen; #31765068) supplemented with 10 µg/ml Puromycin (Invitrogen; #A11139-03), 200 µg/ml Zeocin (Invitrogen; #45-0003) and 10% FCS (Gibco; #10500-064).
Membranes were prepared from CHO (Gα16) human CCR5 cells. Cells were cultured on […] plates (Nunc; #166508) 2-3 days before membrane preparation (usually 80-100 plates to obtain 80 mg protein).
Cells were scraped off the plates with a big scraper and washed with 2×5 ml ice cold Phosphate Buffer Saline (PBS; Invitrogen; #14040-174). Cell suspension was collected in a glass bottle (on ice). Cell suspension was harvested at 1400 rpm and 4° C. for 10 min and washed in PBS. Cell pellet was resuspended in 40 ml PBS with protease inhibitor mix ‘complete’ (Roche; #11873580001; 1 tablet/50 ml).
For gentle cell disruption the membrane preparation was performed by using a homogenizer (potter). Cells were homogenized for 5-10 min.
Membranes were centrifuged at 1000 rpm and 4° C. for 5 min. Supernatant (=membrane) was harvested in a new falcon tube and remaining cell pellet homogenized again for 5-10 min with PBS with protease inhibitor mix and centrifuged. Collected supernatant was centrifuged at 40000 rpm and 4° C. for 30 min to sediment the cell membranes.
The membranes were resuspended in 25 mM HEPES, 25 mM MgCl2, 1 mM CaCl2, 10% Glycerine for storage in aliquots at −80° C. Membranes were diluted to a concentration of 5 mg/ml (Bradford Assay).
[^125I]RANTES, Stock: 1825 Ci/mmol, 25 μCi (Bio Trend #A3-AI-676) was solved in 1000 μl assay buffer (100 mM NaCl; 10 mM MgCl2; 50 mM Tris-HCl; 1 mM EDTA; 0.1% BSA, pH 7.6), stored at −20° C.
CHO (Gα16) human CCR5 membrane were solved on ice and adjusted with assay buffer to a concentration of 2.5 μg/15 μl.
Amersham Biosciences PVT-WGA Beads (GE Healthcare; #RPNQ0001) were adjusted with assay buffer to a concentration of 8 mg/ml. For preparation of the membrane-bead-suspension, membranes and beads were incubated for 30 min at RT under rotation with a ratio of 1:2.
Test compounds dissolved in 100% DMSO to a concentration of 10 mM and are further diluted with 100% DMSO to 1 mM. All additional compound dilutions were obtained with assay buffer, final 1% DMSO. 7 μl compound dilution, 45 μl membrane-bead-suspension and 10 μl [^125I]RANTES (ca. 20000 cpm/10 μl) were incubated at RT. Bound radioactivity was determined by scintillation counter after 6 h. Determination of affinity of test compounds (dissociation constant Ki) is calculated by iterative fitting of experimental data using the “easy sys” program, which is based on law of mass action (Schittkowski K. (1994), Numerische Mathematik, Vol. 68, 129-142).

T2 sequence (P51681 whole entry): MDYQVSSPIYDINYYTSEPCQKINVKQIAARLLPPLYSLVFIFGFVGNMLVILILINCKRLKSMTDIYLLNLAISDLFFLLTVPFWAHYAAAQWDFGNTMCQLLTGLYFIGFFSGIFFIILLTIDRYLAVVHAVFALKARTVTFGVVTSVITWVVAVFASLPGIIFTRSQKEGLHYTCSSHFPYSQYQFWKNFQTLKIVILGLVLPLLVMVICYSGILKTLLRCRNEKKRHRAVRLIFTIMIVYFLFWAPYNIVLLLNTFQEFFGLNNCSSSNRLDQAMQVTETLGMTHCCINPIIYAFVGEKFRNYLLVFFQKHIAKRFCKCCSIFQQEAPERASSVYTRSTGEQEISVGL

For the compound `Cc1c(Nc2cccc(C(F)(F)F)c2)ncnc1C(=O)N1CCC(N2CCO[C@H]3COCC[C@H]32)CC1` [Example 5], the Ki turned out to be 9 nM in assay [1] and 1460 nM in assay [2].
Regarding `Cc1ccc([C@@H]2CCC[C@H](CNc3ncnc(C(=O)N4CCC(N5C[C@H]6C[C@@H](N(C)S(C)(=O)=O)C[C@H]6C5)CC4)c3C)O2)cc1` [Example 6], the Ki in assay [1] came out at 0.3 nM; in assay [2], 38 nM.
On the same counts, the results for `Cc1c(C(=O)N2CCC(N3C[C@H]4C[C@@H](N(C)S(C)(=O)=O)C[C@H]4C3)CC2)ncnc1N1CCc2ccc(C(F)(F)F)cc2C1` [Example 7] are 0.6 nM and 420 nM.
As to `Cc1c(NC[C@H]2CCC[C@@H](c3ccc(OC(F)(F)F)cc3)O2)ncnc1C(=O)N1CCC(N2C[C@H]3C[C@@H](N(C)S(C)(=O)=O)C[C@H]3C2)CC1` [Example 8], the Ki was found to be 0.1 nM in assay [1] and 9 nM in assay [2].
In the case of `Cc1c(NC[C@H]2CCC[C@@H](c3ccc(C(F)(F)F)cc3)O2)ncnc1C(=O)N1CCC(N2C[C@H]3C[C@@H](N(C)S(C)(=O)=O)C[C@H]3C2)CC1` [Example 9], the Ki in assay [1] turned out to be 0.2 nM; in assay [2], 21 nM.
For the compound `Cc1c(Nc2ccc(Cl)c(Cl)c2)ncnc1C(=O)N1CCC(N2C[C@H]3C[C@@H](N(C)S(C)(=O)=O)C[C@H]3C2)CC1` [Example 10], the Ki in assay [1] is 0.6 nM; in assay [2], 92 nM.
On to `Cc1c(NC[C@H]2CCC[C@@H](c3ccccc3)C2)ncnc1C(=O)N1CCC(N2C[C@H]3C[C@@H](N(C)S(C)(=O)=O)C[C@H]3C2)CC1` [Example 11], for which the Ki in assay [1] came out at 0.8 nM; in assay [2] it was 15 nM.
With `Cc1c(NC[C@H]2CCC[C@@H](c3ccc(C(F)(F)F)cc3)O2)ncnc1C(=O)N1CCC(N2CC3CN(S(C)(=O)=O)CC3C2)CC1` (stereo partly drawn) [Example 12], the Ki in assay [1] was found to be 1 nM; in assay [2], 220 nM.
Turning to `Cc1c(C(=O)N2CCC(N3CC4CN(S(C)(=O)=O)CC4C3)CC2)ncnc1N1CCc2ccc(C(F)(F)F)cc2C1` (stereo not drawn) [Example 13], the Ki stood at 7 nM in assay [1] and 2270 nM in assay [2].
For `Cc1ccc([C@@H]2CCC[C@H](CNc3ncnc(C(=O)N4CCC(N5CC6CN(S(C)(=O)=O)CC6C5)CC4)c3C)O2)cc1` (stereo partly drawn) [Example 14] the same measures were 3 nM and 330 nM.
For `Cc1c(Nc2ccc(Cl)c(Cl)c2)ncnc1C(=O)N1CCC(N2CC3CN(S(C)(=O)=O)CC3C2)CC1` (stereo not drawn) [Example 15] the same measures were 3 nM and 400 nM.
As for `Cc1ccc([C@@H]2CCC[C@H](CNc3ncnc(C(=O)N4CCC(N5CC6COCC6C5)CC4)c3C)O2)cc1` (stereo partly drawn) [Example 16], the Ki turned out to be 40 nM in assay [1] and 880 nM in assay [2].
Take `Cc1c(NC[C@H]2CCC[C@@H](c3ccc(C(F)(F)F)cc3)O2)ncnc1C(=O)N1CCC(N2CC3COCC3C2)CC1` (stereo partly drawn) [Example 17]: the Ki in assay [1] was determined as 16 nM; in assay [2] it was 320 nM.
With `Cc1c(Nc2ccc(Cl)c(Cl)c2)ncnc1C(=O)N1CCC(N2CC3COCC3C2)CC1` (stereo not drawn) [Example 18], the results for the Ki in assay [1] and in assay [2] were 24 nM and 930 nM, respectively.
Regarding `COc1nc(NCc2ccc(C(C)(C)C)cc2)c(C)c(C(=O)N2CCC(N3CC4COCC4C3)CC2)n1` (stereo not drawn) [Example 19], the results for the Ki in assay [1] and in assay [2] were 58 nM and 4030 nM, respectively.
For the compound `Cc1c(NCc2ccc(C(C)(C)C)cc2)nc(C(F)(F)F)nc1C(=O)N1CCC(N2CC3COCC3C2)CC1` (stereo not drawn) [Example 20], the Ki in assay [1] stood at 69 nM; in assay [2], 2610 nM.
On the same counts, the results for `Cc1c(NC[C@H]2CCC[C@@H](c3ccc(C(F)(F)F)cc3)O2)ncnc1C(=O)N1CCC(N2CCOC3COCCC32)CC1` (stereo partly drawn) [Example 21] are 3 nM and 200 nM.
With `Cc1ccc([C@@H]2CCC[C@H](CNc3ncnc(C(=O)N4CCC(N5CCOC6COCCC65)CC4)c3C)O2)cc1` (stereo partly drawn) [Example 22], the Ki in assay [1] is 15 nM; in assay [2], 1170 nM.
In the case of `Cc1c(C(=O)N2CCC(N3CCOC4COCCC43)CC2)ncnc1N1CCc2ccc(C(F)(F)F)cc2C1` (stereo not drawn) [Example 23], the Ki in assay [1] was found to be 17 nM; in assay [2], 5820 nM.
Regarding `Cc1c(Nc2ccc(Cl)c(Cl)c2)ncnc1C(=O)N1CCC(N2CCO[C@H]3COCC[C@H]32)CC1` [Example 24], the Ki in assay [1] was 2 nM; in assay [2], 670 nM.
For the compound `Cc1nc(Nc2ccc(Cl)c(Cl)c2)c(C)c(C(=O)N2CCC(N3CCO[C@H]4COCC[C@H]43)CC2)n1` [Example 25], the Ki came out at 3 nM in assay [1] and 470 nM in assay [2].
As to `Cc1c(Nc2ccc(Cl)c(Cl)c2)nc(C2CC2)nc1C(=O)N1CCC(N2CCO[C@H]3COCC[C@H]32)CC1` [Example 26], the Ki came to 0.8 nM in assay [1] and 430 nM in assay [2].
With `COc1nc(Nc2cccc(C(F)(F)F)c2)c(C)c(C(=O)N2CCC(N3CCO[C@H]4COCC[C@H]43)CC2)n1` [Example 27], the results for the Ki in assay [1] and in assay [2] were 3 nM and 1000 nM, respectively.
For `COc1nc(Nc2ccc(Cl)c(Cl)c2)c(C)c(C(=O)N2CCC(N3CCO[C@H]4COCC[C@H]43)CC2)n1` [Example 28] the same measures were 0.9 nM and 390 nM.
